Key:
[1] = Buccal availability study: pharmacokinetics and bioavailability of carbocysteine in dogs (buccal vs oral vs IV); details: beagle dogs; range across buccal and oral routes; no significant differences
Protocol: (§1) A study was conducted in dogs to determine the pharmacokinetics and bioavailability of a buccal formulation of carbocysteine in comparison to oral and IV routes of administration.
(§2) The study was conducted according to the following methodology. A 400 mg dissolving tablet, a 400 mg oral tablet, and a 200 mg IV dose of carbocysteine were administered to each of five beagle dogs in a randomized crossover pattern. […] The dissolving tablet was administered to the animal by placing the tablet in the mouth until it dissolved. The oral tablet was administered by forcing the animal to swallow the tablet. […] Plasma concentrations were measured by precolumn derivatization of S-carboxymethylcysteine using o-phthaldialdehyde (OPA) and subsequent HPLC analysis. All data were analyzed using WinNonlin®, a tool for pharmacokinetic and pharmacodynamic analysis. The carbocysteine plasma data was fitted to a one-compartment model with first-order elimination. The pharmacokinetic parameters (t1/2, CL, Vd) generated from each route of administration were compared using analysis of variance (ANOVA) to detect statistically significant differences. A paired t-test was used to detect the differences in Cmax, Tmax, Ka, and F between buccal and oral routes of administration.

in vivo = details: beagle, dog, plasma
Protocol: as §1, §2

SMILES: N[C@@H](CSCC(=O)O)C(=O)O [carbocysteine, S-carboxymethyl-L-cysteine]
- Ka [1]: 0.028−0.034 min^−1
- Vd (in vivo): 0.405 to 0.418 L/kg
- clearance (in vivo): 4.52 to 4.64 mL/min/kg
- half-life (in vivo): 1.02 to 1.07 h
- Tmax (in vivo; 400 mg): 1.5 to 1.55 h

Reference: patent publication US20100120776A1, “Carbocysteine medical foods” (Hall Bioscience Corporation, priority 2008, published 2010)
